Series [1] relates to mature adipocytes (3T3-L1). The experiment in a line: Apoptosis assay (ApoStrand ELISA, single stranded DNA) in mature adipocytes. The series is classed as cell-based, mouse. The following applies: for effect on apoptosis of mature adipocytes (ssDNA): individual compound, XN e.g. 50 μM at 48 hrs; for increased apoptosis, alone: XN or GS alone; for effect on apoptosis: compound alone at 25 and 50 μM; for % Increase in apoptosis mean ± s.e.m.: mature adipocytes, concentration (μM) is the number in the treatment label. As to the method: Apoptosis assays. For the assessment of apoptosis, the ApoStrand ELISA Apoptosis Detection Kit (Biomol, Plymouth Meeting, Pa.) was used. This kit detects single stranded DNA, which occurs in apoptotic cells but not in necrotic cells or in cells with DNA breaks in the absence of apoptosis. Adipocytes were incubated with DMSO or the test compounds for the indicated times and at the indicated concentrations. Thereafter, treatment media was removed and the cells were fixed for 30 min and assayed according to the manufacturer's instructions.
The enhanced reduction in cell viability by XN plus HK was evaluated to determine if the reduction in cell viability was attributable to apoptosis.
The effects of XN and G on mature adipocytes apoptosis were investigated by measuring the changes of the levels of single strained DNA (ssDNA) in the cells.
(§1) The enhanced reduction in cell viability by XN plus GS was evaluated to determine if the reduction in cell viability was attributable to apoptosis.
On the technique in general: An ELISA detects its analyte on a solid surface through an enzyme-linked reagent.

The subject of series [2] is mature adipocytes (3T3-L1). The experiment in a line: Cell viability assay (MTS) in mature adipocytes. To be noted: for effect on viability of mature adipocytes: individual compound, 24 and 48 h; for effect on cell viability: compound alone at 25 and 50 μM.
Description: (§5) 3T3-L1 mouse fibroblast were obtained from American Type Culture Collection (Manassas, Va.) and were cultured in Dulbecco's modified Eagle's medium (DMEM) (GIBCO, Grand Island, N.Y.) containing 10% bovine calf serum (BCS) until confluent. Two days after confluency, the cells were stimulated to differentiate with an induction medium (hereinafter “MDI”), which comprises DMEM containing 10% FBS, 167 nM insulin (Sigma), 0.5 μg of isobutylmethylxanthine (IBMX) (Sigma), and 1 μm of dexamethasone (Sigma) for two (2) days. Cells were then maintained on 10% FBS/DMEM with 167 nM insulin for another 2 days, followed by culturing with FBS/DMEM for an additional four days, at which time more than 90% of cells were mature adipocytes with accumulated fat droplets. All media contained 100 U/ml of penicillin, 100 μg/ml of streptomycin, and 292 μg/ml of glutamine. Cells were maintained at 37° C. in a 5% CO2 humidified environment.
(§6) Cell viability assay. Adipocytes were incubated with dimethyl sulfoxide (DMSO) (0.02%) or test compounds. Prior to measuring viability, treatment media were removed and replaced with 100 μl fresh 10% FBS/DMEM medium and 20 μl MTS solution (Promega, Madison, Wis.). Cells were then returned to the incubator for an additional 2 h before 25 μl of 10% sodium dodecyl sulfate (SDS) was added to stop the reaction. The absorbance was measured at 490 nm in a plate reader (μQuant Bio-Tek Instruments, Inc. Winooski, Vt.) to determine the formazan concentration, which is proportional to the number of live cells.
(§7) Adipocytes were treated with XN (25, 50 μM) and HK (25, 50, 75 μM) as individual compounds or in combination for 12, 24, and 48 h. After treatment, cell viability was determined by the MTS assay, as described in Example 1.
(§8) Adipocytes were treated with XN (25, 50 μM) and G (50, 100 μM) as individual compounds or in combination for 24 and 48 h. After treatment, cell viability was determined by the MTS assay, as described in Example 1.
(§9) Adipocytes were treated with XN (25, 50, 75 μM) and GS (25, 50, 75 μM) as individual compounds or in combination for 24 and 48 h. After treatment, cell viability was determined by the MTS assay, as described in Example 1.
In the next series the test system is caspase-3/7. The experiment in a line: Caspase-3 and 7 activity assay (Caspase-Glo 3/7) in mature adipocytes. The following applies: for caspase-3/7 activity: individual compound, XN 25, 50 μM, HK 25, 50, 75 μM, 12 h. Type of series: cell-based, mouse. As to the method: Caspase-3 and 7 activity assay. Adipocytes were incubated with DMSO or the test compounds and the indicated times and concentrations. Thereafter, 100 μl of caspase-Glo 3/7 reagent (Promega, Madison, Wis.) was added to each sample and the cells were incubated for 1 h and assayed according to the manufacturer's instructions.
Effects of XN and HK on caspase-3/−7 activation and PARP cleavage. To confirm apoptosis in response to combined treatment with XN and HK, the activity of caspase-3/7 was evaluated.
The caspases 3/7 activity was measured using a commercially available Caspase Glo 3/7 assay kit (Promega, Madison, Wis.), as described in Example 1.

Series [3] relates to mature adipocytes. The experiment in a line: Lipolysis in mature adipocytes. The series is classed as cell-based, mouse. The following applies: for lipolysis: XN or GS alone, 12 h incubation. As to the method: Effects of XN and HK on lipolysis in mature adipocytes. Mature adipocytes were incubated with either control or test compounds for indicated times.
Series [4] has as its system mature adipocytes. Description: Hoechst staining of mature adipocytes. The series is classed as cell-based, mouse. To be noted: XN or GS alone. As to the method: as §1
A further series deals with Bcl-2 protein. Description: Bcl-2 protein expression (Western blot). To be noted: compound individually. Type of series: cell-based, mouse. As to the method: (§2) Western blot analysis. Following the indicated treatment, whole cell extracts were prepared by washing the cells with phosphate buffered saline (PBS) and suspending the cells in a lysis buffer (20 mM Tris, pH 7.5, 150 mM sodium chloride, 1 mM EDTA, 1 mM EGTA, 1% Triton X-100, 2.5 mM sodium pyrophosphate, 1 mM β-glycerophosphate, 1 mM sodium vanadate (Na3VO4), 1 μg/ml aprotinin, 1 μg/ml leupeptin, and 100 μg/ml phenylmethylsulfonyl fluoride). After 30 min of rocking at 4° C., the mixtures were centrifuged (10,000×g) for 10 min, and the supernatants were collected as whole-cell extracts. […] The protein concentration was determined by the method of Bradford with bovine serum albumin as the standard. […] Samples were heated to 70° C. for 10 min, separated by 12% acrylamide gels, and analyzed by immunoblotting. […]
(§3) Quantitative analysis of Western blot data. […] For statistical analysis, all data were expressed as integrated density values (IDV). For PARP, Bcl-2, and cytochrome c, IDVs were calculated as the density values of the specific protein bands/β-actin density values and expressed as percentage of the control.
To further investigate whether XN and GS affects the intrinsic apoptosis induction pathway, the expression of the anti-apoptotic Bcl-2 protein was evaluated by western blotting.
On the technique in general: Immunoblotting shows a protein as a band on a membrane.

Series [5] deals with mature adipocytes. Description: Lipid content of mature adipocytes after 7-day treatment. Type of series: cell-based, mouse. The following applies: individual compound, XN 6 μM and 12 μM, GS 12 μM and 25 μM, seven days.
The subject of the next series is 3T3-L1 pre-adipocytes. The experiment in a line: Adipogenesis: lipid content (AdipoRed) during maturation of pre-adipocytes. To be noted: compound alone, days 0-6 of differentiation. Type of series: cell-based, mouse. As to the method:
Quantification of lipid content and oil red O staining. Lipid content was measured using a commercially available kit (AdipoRed Assay Reagent; Cambrex Bio Science, Walkersville, Inc.). Briefly, test compositions and a 0.01% DMSO control were added with the induction medium for days 0-6 of adipogenesis. Medium was changed every 2 days. On day 6, intracellular lipid content was measured by AdipoRed Assay. Cells were washed with PBS (pH 7.4) and 200 μl of PBS was added to the wells. About 5 μl of AdipoRed reagent was added to each well. After 10 min, the plates were placed in the fluorometer and fluorescence was measured with excitation wavelength of 485 nm and emission wavelength of 572 nm. To visualize lipid content, treated cells were stained with oil red O and hematoxylin as described by Suryawan and Hu. After mounting with glycerol gelatin, three images for each dish were captured using ImagePro software (MediaCybernetics, Silver Spring, Md.).
Effects of XN and HK on adipogenesis of post-confluent pre-adipocytes during maturation. Post-confluent pre-adipocytes were induced to differentiate for 0-6 days in differentiation medium with or without XN or HK for indicated times. […]
To determine the synergistic effects of XN and GS on adipogenesis, the effect of XN and GS on inhibiting lipid accumulation in (FIG. 15A) and viability of (FIG. 15B) maturing 3T3-L1 adipocytes was determined.

Another series concerns cytochrome c. The experiment in a line: Cytochrome c release from mitochondria (Western blot). Type of series: cell-based, mouse. The following applies: compound alone at 50 μM. As to the method:
as §2, §3
(§4) Effects of XN and HK cytochrome c release from mitochondria and PARP cleavage in mature adipocytes. To further investigate whether XN and HK affects the intrinsic apoptosis induction pathway, the induction of cytochrome c release was evaluated by Western blotting.

Series [6] deals with Poly (ADP-ribose) polymerase (PARP). Description: PARP cleavage in mature adipocytes (Western blot). The following applies: compound alone. The series is classed as cell-based, mouse. As to the method: as §2, §3, §4
Series [7] has as its system mature adipocytes (3T3-L1). To be noted: mouse, 48 h.
Description: as §5, §6, §7, §8, §9

This note sets out measurements from US8101213B2, “Xanthohumol compositions and methods of using same” (The University of Georgia Research Foundation, Inc, priority 2007, dated 2012).

Where two headings read alike, the source gives them in different places.

Consider `O=c1c(-c2ccc(O)cc2)coc2cc(O)cc(O)c12` [G, 4,5,7-trihydroxyisoflavone], for which, in series [1], the “effect on apoptosis of mature adipocytes (ssDNA)” value is on record as “did not affect apoptosis”. In [2] (XN 25, 50 μM, G 50, 100 μM), the “effect on viability of mature adipocytes” value is recorded as “did not affect the viability”.

Regarding `C/C=C1\C(=O)C[C@H]2[C@@H]3CCC4=CC(=O)CC[C@]4(C)[C@H]3CC[C@]12C` [GS, Guggulsterone], the “increased apoptosis, alone” value in [1] was “about 20%”. In the series with caspase-3/7 (GS alone at 75 μM), the “caspase 3/7 activity” value was “increased caspase activity”. Besides, the lipolysis result in the series on mature adipocytes [3] was “increased lipolysis slightly”. The “Hoechst staining, individual treatments” value in the series with mature adipocytes [4] is “small increase in staining”. For the same compound, in the series on Bcl-2 protein, the Bcl-2 protein level entry is “decreased Bcl-2”. Further, the “lipid accumulation in mature adipocytes” value in the series on mature adipocytes [5] was “decreased lipid accumulation”. In addition, the “effect on viability of mature adipocytes” value in series [2] (XN or GS 25, 50, 75 μM) is “decreased the viability of mature adipocytes in a dose-dependent and time-dependent manner”.

In the case of `COc1cc(O)c(CC=C(C)C)c(O)c1C(=O)/C=C/c1ccc(O)cc1` [XN, Xanthohumol], in series [1], the “increased apoptosis, alone” value is recorded as “about 20%” and the “effect on apoptosis of mature adipocytes (ssDNA)” value is “increased apoptosis”. In series [1] (24 h), the effect on apoptosis result was “no effect” and the “% Increase in apoptosis mean ± s.e.m.” value was 51.0 ± 16.5%. Besides, the caspase-3/7 activity result in the series with caspase-3/7 is “increased caspase-3/7 activity in a dose-dependent manner”. Moreover, the “lipid accumulation during maturation” value in the series on 3T3-L1 pre-adipocytes is recorded as “decreased lipid accumulation”. Also, the increase in lipolysis with mature adipocytes [3] (XN 50 μM alone) stood at 20%. Besides, the lipolysis entry with mature adipocytes [3] is “increased lipolysis slightly”. In addition, in the series on cytochrome c, the “effect on cytochrome c release” value was “neither 50 μM of XN nor 50 μM of HK had an effect”. Moreover, the “effect on PARP cleavage” value in series [6] was “neither compound alone may affect”. In addition, the “Hoechst staining, individual treatments” value in the series with mature adipocytes [4] is “small increase in staining”. In addition, the Bcl-2 protein level entry in the series on Bcl-2 protein was “decreased Bcl-2”. Further, the “lipid accumulation in mature adipocytes” value with mature adipocytes [5] was “decreased lipid accumulation”. Also, the “effect on cell viability” value in series [2] (48 h) is “no effect”. Also, the “effect on viability of mature adipocytes” value in series [2] (XN 25, 50 μM, G 50, 100 μM) was “decreased the viability of mature adipocytes in a dose-dependent and time-dependent manner”. The “effect on viability of mature adipocytes” value in series [2] (XN or GS 25, 50, 75 μM) was “decreased the viability of mature adipocytes in a dose-dependent and time-dependent manner”. The “% Decrease in viability mean ± s.e.m.” value in series [2] (mature adipocytes, 48 h, concentration (μM) is the number in the treatment label) is −2.8 ± 1.5%.

As to `C=CCc1ccc(O)c(-c2ccc(O)c(CC=C)c2)c1` [HK, Honokiol], the increased apoptosis in series [1] (alone at 75 μM, 24 h, P<0.05) was 70.4±15.9%. For the same compound, in series [1] (24 h), the effect on apoptosis result is “no effect”. Besides, the “% Increase in apoptosis mean ± s.e.m.” value in series [1] (24 h, listed as HK50) is listed as 10.8 ± 5.9%; in series [1] (24 h, listed as HK75) it was 70.4 ± 15.9%. Moreover, the caspase-3/7 activity result in the series with caspase-3/7 is “increased caspase-3/7 activity in a dose-dependent manner”. For the same compound, the “lipid accumulation during maturation” value in the series on 3T3-L1 pre-adipocytes was “increased lipid accumulation”. Also, the “effect on cytochrome c release” value in the series on cytochrome c was “neither 50 μM of XN nor 50 μM of HK had an effect”. The “effect on PARP cleavage” value in series [6] is “neither compound alone may affect”. The “% Decrease in viability mean ± s.e.m.” value in series [7] was −1.8 ± 1.5%. Also, in series [2] (Mus musculus, 3T3-L1, 48 h, read-out: decreased cell viability), the cytotoxicity at 75 µM came to 9.1 ± 2.5%. Further, the “effect on cell viability” value in series [2] (48 h) was “no effect”.
